Test results from US8604021B2, “Substituted arylamine compounds and methods of treatment” (priority 2005, dated 2013).
“Also recorded” adds a separate entry of the source.

How the values were obtained:
α1 = experiment: Compound Binding Profiles: α1; settings: * = Estimated IC50
5HT2C = molecular target: T1, 5HT2C (Homo sapiens, UniProt P28335); experiment: Compound Binding Profiles: 5HT2C; settings: * = Estimated IC50
T1 sequence (P28335 33-458): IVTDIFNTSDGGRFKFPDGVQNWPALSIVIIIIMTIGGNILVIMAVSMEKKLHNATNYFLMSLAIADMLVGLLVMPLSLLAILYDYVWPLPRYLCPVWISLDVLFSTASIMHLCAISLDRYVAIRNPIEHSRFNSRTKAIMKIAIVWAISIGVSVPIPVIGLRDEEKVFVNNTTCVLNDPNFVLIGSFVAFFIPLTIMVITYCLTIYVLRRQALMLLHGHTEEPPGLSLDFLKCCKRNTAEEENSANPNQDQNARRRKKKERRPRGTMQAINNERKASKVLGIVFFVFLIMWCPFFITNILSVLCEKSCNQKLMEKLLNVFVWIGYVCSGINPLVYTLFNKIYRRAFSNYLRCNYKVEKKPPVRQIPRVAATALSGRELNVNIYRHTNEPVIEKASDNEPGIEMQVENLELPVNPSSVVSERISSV

[1] = test system: more than 70 tested receptors; settings: versus 5-HT6
[2] = Novel object recognition test; assay type: in vivo, C57Bl/6J mice; settings: for Memory index, Mean: 10 min test; for Exploration time, Diff of Means 10% DMSO vs. treatment: within Familiar; for Exploration time, Diff of Means treatment vs. 10% DMSO: within Novel
Excerpt: Male C57Bl/6J mice from Jackson Laboratories (Bar Harbor, Me.) were used. Mice were received at 6-weeks of age. Upon receipt, mice were assigned unique identification numbers (tail marked) and were group housed in polycarbonate cages with filter tops. All animals remained housed in groups of four during the remainder of the study. All mice were acclimated to the colony room for at least two weeks prior to testing and were subsequently tested at an average age of 8 weeks of age. During the period of acclimation, mice were examined on a regular basis, handled, and weighed to assure adequate health and suitability. Mice were maintained on a 12/12 light/dark cycle with the light on at 6:00 a.m. The room temperature was maintained between 20 and 23° C. with a relative humidity maintained between 30% and 70%. Chow and water were provided ad libitum for the duration of the study. In each test, animals were randomly assigned across treatment groups.
The pH at the 10 mg/kg was around 5.5.
Rolipram, also dissolved in 10% DMSO was only administered 20 min prior to training on Day 2.
On Day 1, mice were habituated to a circular open field environment (d=18 in, h=15 cm) for one hour in cage groups of four. Each Arena was constructed out of acrylic that was painted black to block reflection. On day 2, mice were placed back into the same arena for a training trial and allowed to explore a set of two identical objects placed equidistance apart from both each other and the arena walls. Individual mice were trained for a total of 15 minutes and then placed back into their home cages. On Day 3, mice were placed back into the same arena in the presence of both the familiar (previously explored) and a novel object. The spatial positions of the familiar and novel object (i.e. left-right sides) were counterbalanced between subjects. The difference in time spent exploring each object during the test trial was used as an index of object recognition and memory retention. Each animals test trial was recorded and these tapes were observed and scored after test completion. The first 10 min of each session was scored and object recognition was computed using the formula: (Time spent with novel object*100)/(Total Time exploring both objects). Tissue Harvest
Data were analyzed by analysis of variance (ANOVA) followed by post-hoc comparisons with Fisher Tests when appropriate. An effect was considered significant if p<0.05. Data are represented as the mean and standard error to the mean.

[3] = Oral pharmacokinetics in dogs; settings: dog, in vivo, oral administration 5 mg/kg
CYP3A4 = CYP3A4 (Homo sapiens, UniProt P08684); experiment: CYP inhibition CYP3A4
D4 = molecular target: T2, D4 (Homo sapiens, UniProt P21917); experiment: Compound Binding Profiles: D4; settings: read-out: D4 binding class
T2 sequence (P21917 1-419): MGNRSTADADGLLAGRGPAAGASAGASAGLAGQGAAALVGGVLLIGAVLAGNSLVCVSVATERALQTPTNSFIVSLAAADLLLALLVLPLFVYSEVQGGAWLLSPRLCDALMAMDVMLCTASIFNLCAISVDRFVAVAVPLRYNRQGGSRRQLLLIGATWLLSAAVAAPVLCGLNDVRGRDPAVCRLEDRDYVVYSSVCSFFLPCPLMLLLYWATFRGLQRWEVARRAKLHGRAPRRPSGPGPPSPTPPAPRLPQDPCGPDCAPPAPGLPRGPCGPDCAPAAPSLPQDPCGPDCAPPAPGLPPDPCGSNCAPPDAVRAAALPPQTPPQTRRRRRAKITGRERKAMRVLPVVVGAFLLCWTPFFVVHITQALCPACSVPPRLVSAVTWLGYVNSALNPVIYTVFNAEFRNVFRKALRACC

CYP2C9 = CYP2C9 (Homo sapiens, UniProt P11712); experiment: CYP inhibition CYP2C9
M1 = molecular target: T3, M1 (Homo sapiens, UniProt P11229); experiment: Compound Binding Profiles: M1; settings: * = Estimated IC50
T3 sequence (P11229 1-460): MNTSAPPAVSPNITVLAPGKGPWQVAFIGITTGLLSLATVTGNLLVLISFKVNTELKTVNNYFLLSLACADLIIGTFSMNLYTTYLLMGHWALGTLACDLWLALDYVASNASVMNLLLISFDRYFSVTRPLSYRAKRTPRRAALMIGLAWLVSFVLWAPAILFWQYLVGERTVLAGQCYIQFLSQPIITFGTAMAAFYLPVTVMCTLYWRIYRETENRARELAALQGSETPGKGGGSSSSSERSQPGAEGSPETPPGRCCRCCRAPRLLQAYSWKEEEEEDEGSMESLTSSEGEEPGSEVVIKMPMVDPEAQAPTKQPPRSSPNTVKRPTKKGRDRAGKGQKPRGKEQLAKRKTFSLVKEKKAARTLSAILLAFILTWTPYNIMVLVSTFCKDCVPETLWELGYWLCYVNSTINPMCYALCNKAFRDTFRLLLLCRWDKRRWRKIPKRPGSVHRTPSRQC

Chain of CYP2C9 (P11712 whole entry): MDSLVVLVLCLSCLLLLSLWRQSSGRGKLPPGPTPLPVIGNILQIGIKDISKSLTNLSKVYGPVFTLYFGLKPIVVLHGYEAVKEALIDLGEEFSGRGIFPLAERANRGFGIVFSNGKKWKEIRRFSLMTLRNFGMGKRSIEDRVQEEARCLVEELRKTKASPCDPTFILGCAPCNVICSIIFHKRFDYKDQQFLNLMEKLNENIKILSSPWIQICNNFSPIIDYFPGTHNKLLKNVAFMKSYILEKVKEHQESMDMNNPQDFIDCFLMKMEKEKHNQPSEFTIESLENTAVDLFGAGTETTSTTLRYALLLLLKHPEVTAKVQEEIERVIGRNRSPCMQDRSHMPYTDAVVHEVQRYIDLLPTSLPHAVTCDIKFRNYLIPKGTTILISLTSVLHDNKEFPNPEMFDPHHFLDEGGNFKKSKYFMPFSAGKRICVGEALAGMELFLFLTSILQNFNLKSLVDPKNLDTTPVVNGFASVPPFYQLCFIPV
Chain of CYP3A4 (P08684 whole entry): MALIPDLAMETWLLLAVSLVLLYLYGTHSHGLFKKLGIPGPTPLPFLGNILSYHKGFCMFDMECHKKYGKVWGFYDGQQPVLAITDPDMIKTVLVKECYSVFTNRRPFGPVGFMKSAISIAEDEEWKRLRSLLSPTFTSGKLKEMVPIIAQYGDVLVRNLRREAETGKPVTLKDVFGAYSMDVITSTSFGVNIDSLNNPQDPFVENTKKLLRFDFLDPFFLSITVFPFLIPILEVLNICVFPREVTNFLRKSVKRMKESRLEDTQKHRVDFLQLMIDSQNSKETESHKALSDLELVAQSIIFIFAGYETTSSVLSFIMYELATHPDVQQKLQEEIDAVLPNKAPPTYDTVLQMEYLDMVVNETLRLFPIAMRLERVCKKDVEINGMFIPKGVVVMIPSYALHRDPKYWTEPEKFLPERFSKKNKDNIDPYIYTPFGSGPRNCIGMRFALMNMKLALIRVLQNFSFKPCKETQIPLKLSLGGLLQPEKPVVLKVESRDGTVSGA

COc1cc(Cl)cc(C(C)Nc2cc(N3CCNCC3)ccc2S(C)(=O)=O)c1OC.Cl (centres unmarked) [Compound A, [1-(5-Chloro-2,3-dimethoxy-phenyl)-ethyl]-(2-methanesulfonyl-5-piperazin-1-yl-phenyl)-amine hydrochloride]
IC50 (α1): 24 µM | IC50 (5HT2C): 3.8 µM | safety margin (selectivity) to more than 70 tested receptors [1]: > 100 fold | Exploration time, Diff of Means Novel vs. Familiar ([2]; 1 mg/kg): 14.456 | Memory index, Mean Diff. Vehicle versus treatment (Fisher's PLSD) ([2]; 1 mg/kg): −4.573 | Memory index, Mean ([2]; 1 mg/kg i.p.): 61.179 | Exploration time, Mean ([2]; 1 mg/kg, Familiar Object): 24.810 | Exploration time, Mean ([2]; 1 mg/kg, Novel Object): 39.266 | Exploration time, Diff of Means Novel vs. Familiar ([2]; 3 mg/kg): 23.871 | effect on recognition index / object recognition compared to vehicle ([2]; 3 mg/kg and 10 mg/kg, hydrochloride): significantly increased the recognition index; also recorded: significant, positive effect on object recognition | Memory index, Mean ([2]; 3 mg/kg i.p.): 68.946 | Exploration time, Mean ([2]; 3 mg/kg, Familiar Object): 17.506 | Exploration time, Mean ([2]; 3 mg/kg, Novel Object): 41.377 | Exploration time, Diff of Means Novel vs. Familiar ([2]; 10 mg/kg): 18.878 | Memory index, Mean Diff. Vehicle versus treatment (Fisher's PLSD) ([2]; 10 mg/kg): −9.784 | Memory index, Mean ([2]; 10 mg/kg i.p.): 66.391 | Exploration time, Mean ([2]; 10 mg/kg, Familiar Object): 16.153 | Exploration time, Mean ([2]; 10 mg/kg, Novel Object): 35.031 | time exploring novel object versus familiar object ([2]; 1, 3, and 10 mg/kg): spent more time exploring novel object than the familiar object | Exploration time, Diff of Means 10% DMSO vs. treatment ([2]; 1 mg/kg): 0.831 | Exploration time, Diff of Means 10% DMSO vs. treatment ([2]; 3 mg/kg): 6.473 | Exploration time, Diff of Means 10% DMSO vs. treatment ([2]; 10 mg/kg): 7.826 | Exploration time, Diff of Means treatment vs. 10% DMSO ([2]; 1 mg/kg): 8.282 | Exploration time, Diff of Means treatment vs. 10% DMSO ([2]; 3 mg/kg): 10.393 | Exploration time, Diff of Means treatment vs. 10% DMSO ([2]; 10 mg/kg): 4.047 | bioavailability ([3]; read-out: bioavailability F): 81% | half-life ([3]; read-out: half-life T1/2 (converted)): 5 h | IC50 (CYP3A4): > 7.5 µM | stability (HLM) (Stability in HLM): > 90 min | Ki (D4): 0.1 to 1 µM | IC50 (CYP2C9): > 7.5 µM | IC50 (M1): 3.4 µM
